Assay results as given in US20130131178A1, “USE OF OXALOACETATE IN THE TREATMENT OF ISCHAEMIA” (UNIVERSIDADE DE SANTIAGO DE COMPOSTELA, priority 2010, published 2013).

Assays:
Type in all cases: in vivo, male Sprague-Dawley (SD) rats
blood glutamate levels [1] = test: Effect of oxaloacetate administration on blood glutamate and aspartate levels in healthy animals; design: effect on glutamate levels: dose or concentration left out as unconfirmed
Procedure: The oxaloacetate used (Sigma-Aldrich, Ref, 171263, 95%) was dissolved in saline solution to a concentration of 10 mg/mL and the pH adjusted to 7.4. […]
(§1) The study protocols for male Sprague-Dawley (SD) rats (Charles River Laboratories; France) weighing between 300 and 350 g were approved by the Animal Use and Care Committee at the Hospital de Santiago de Compostela.
Anaesthesia was induced by inhalation of 5% sevoflurane in a mixture of nitrous oxide and oxygen (70/30). A rectal temperature of 37.5° C. was maintained. Glucose levels (180-220 mg/dL) were analysed prior to the intervention.
(§2) Aspartate and glutamate levels in blood were analysed according to the method described in the following reference (White, J. A., R. J. Hart, and J. C. Fry, An evaluation of the Waters Pico-Tag system for the amino-acid analysis of food materials. J Automat Chem, 1986. 8(4): p. 170-7).
Likewise, no changes in aspartate levels were observed (FIG. 1b).
This increase in aspartate levels confirms that glutamate is being metabolised by the enzyme GOT as a result of oxaloacetate treatment.
The […] and aspartate levels in blood were established in a control group treated with saline.

[2] = test system: Middle cerebral artery occlusion (MCAO) model of cerebral ischaemia; test: Infarct and oedema volumes by magnetic resonance imaging in the MCAO model of cerebral ischaemia; settings: 3.5 mg/100 g IV 90 minutes post-occlusion
Procedure: The oxaloacetate used (Sigma-Aldrich, Ref, 171263, 95%) was dissolved in saline solution to a concentration of 10 mg/mL and the pH adjusted to 7.4. As the average weight of the experimental animals was 325 g and the dose administered was 3.5 mg/100 g body weight, each animal received an average volume of 1.2 mL of 10 mg/mL oxaloacetate. The study protocols for male Sprague-Dawley (SD) rats (Charles River Laboratories; France) weighing between 300 and 350 g were approved by the Animal Use and Care Committee at the Hospital de Santiago de Compostela. Anaesthesia was induced by inhalation of 5% sevoflurane in a mixture of nitrous oxide and oxygen (70/30). A rectal temperature of 37.5° C. was maintained. Glucose levels (180-220 mg/dL) were analysed prior to the intervention. Middle cerebral artery occlusion (MCAO) was used as a model of cerebral ischaemia, as described in the literature (Longa, E. Z., et al., Reversible middle cerebral artery occlusion without craniectomy in rats. Stroke, 1989. 20(1): p. 84-91). […] The infarct and oedema volumes were determined by magnetic resonance imaging. […] The blood glutamate levels and infarct and oedema volumes were determined in both groups. […]

blood glutamate levels [3] = test: Effect of oxaloacetate on blood glutamate levels in an animal model of focal ischaemia (MCAO); settings: 3.5 mg/100 g IV 90 minutes post-occlusion, 4 hours post-occlusion
Procedure: The oxaloacetate used (Sigma-Aldrich, Ref, 171263, 95%) was dissolved in saline solution to a concentration of 10 mg/mL and the pH adjusted to 7.4. As the average weight of the experimental animals was 325 g and the dose administered was 3.5 mg/100 g body weight, each animal received an average volume of 1.2 mL of 10 mg/mL oxaloacetate.
as §1
Anaesthesia was induced by inhalation of 5% sevoflurane in a mixture of nitrous oxide and oxygen (70/30). A rectal temperature of 37.5° C. was maintained. Glucose levels (180-220 mg/dL) were analysed prior to the intervention. […]
as §2
Two groups were designed: an MCAO group treated with saline (control group) and an MCAO group treated with 3.5 mg/100 g oxaloacetate IV 90 minutes post-occlusion. The blood glutamate levels and infarct and oedema volumes were determined in both groups. […]

O=C(O)CC(=O)C(=O)O [oxaloacetate]
effect on glutamate levels (blood glutamate levels [1]; administration via bolus (IV)): no effect
decrease in serum glutamate levels with respect to basal levels (blood glutamate levels [1]; healthy animals, 3.5 mg/100 g IV, two hours post-administration): 60%
infarct volume smaller than in the control group ([2]; 24 hours post-ischaemia): approximately 40%
decrease of infarct volume ([2]; at 7 days): 80%
drop of blood glutamate levels below basal levels (blood glutamate levels [3]): 50%
